Results published in patent US4027017A, “Method of treating alcoholism” (Chugai Seiyaku Kabushiki Kaisha, priority 1974, dated 1977).
Values joined by “and” are separate entries in the source; they are usually repeats but may differ in a detail not shown here. Equal entries are not always repeated. “Also recorded” adds a separate entry of the source.

Legend:
[1] = tested on: neutral lipid in liver; assay: Inhibiting action for accumulation of neutral lipid in liver (ethanol-treated rats; Van Handel and Zilver-Smit method); assay type: in vivo, Sprague Dawley strain male rats; conditions: 160 mg/kg oral in corn oil, 30 min before ethanol 6 g/kg oral; liver taken 24 hours after
Protocol: Inhibiting Action for Accumulation of Neutral Lipid in Liver […] Each rat was orally administered with trisodium uridine-5'-diphosphate glucuronic acid (UDPGA-3.Na) as a suspension in corn oil in a dose of 160 mg/kg.body weight. Thirty minutes after the administration, each rat was orally administered with ethanol as a 50% aqueous solution in a dose of 6 g/kg.body weight and, 24 hours after the administration, the liver was taken out and an amount of neutral lipid contained therein was determined by the Van Handel and Zilver-Smit method. For control, a glucose aqueous solution having a caloric content equivalent to the same amount of ethanol was used instead of ethanol.

[2] = tested on: Sprague Dawley strain male rats; assay: Behaviour and righting reflex after ethanol, UDPGA.3Na given 30 minutes before ethanol; assay type: in vivo; conditions: 160 mg/kg oral 30 min before ethanol 6 g/kg
Protocol: The Sprague Dawley strain male rats weighing 260±30 g which had been fed rat food commerically available as CLEA CE-2 and prevented from eating food for 12 hours just before the experiment were divided into groups each of 10-13 members each. Each rat was orally administered trisodium uridine-5'-diphosphate glucuronic acid (UDPGA.3Na) in the form of a suspension in corn oil in an amount 160 mg/kg.body weight. Thirty minutes after the administration, ethanol as a 50% aqueous solution was orally administered in a dose of 6 g/kg.body weight and then behavior of the rat was observed over 24 hours.

[3] = tested on: Sprague Dawley strain male rats; assay: Behaviour and righting reflex after ethanol, UDPGA.3Na given 30 minutes after ethanol; assay type: in vivo; conditions: 160 mg/kg oral 30 min after ethanol 6 g/kg
Protocol: The Sprague Dawley strain male rats weighing 160±30 g which were fed rat food commercially available as CLEA CE-2 and prevented from eating food for 12 hours just before the experiment was started. Each rat was administered with ethanol as a 50% aqueous solution in a dose of 6 g/kg.body weight. Thirty minutes after the administration, the rat was orally administered with a suspension of trisodium uridine-5'-diphosphate glucuronic acid (UDPGA.3Na) in corn oil in a dose of 160 mg/kg.body weight based on UDPGA.3Na. The behavior of the rat was observed over 24 hours after the last administration.

[4] = tested on: alcohol level in blood; assay: Measurement of alcohol level in blood (alcoholic dehydrogenase method) and behavior; assay type: in vivo, Sprague Dawley strain female rats; conditions: 30 min before ethanol 6 g/kg
Protocol: Measurement of Alcohol Level in Blood
In this Example, Sprague Dawley strain female rats (weighing 150±20 g) divided into groups of 9-12 members each were used.
After abstention from food overnight each rat was orally administered trisodium uridine-5'-diphosphate glucuronic acid (UDPGA.3Na) in the form of a physiological saline solution in a dose of 160 mg/kg.body weight as an effective ingredient and, 30 minutes after the administration, the rat was administered with ethanol in a dose of 6 g/kg body weight. Four hours and thirty minutes after the administration of ethanol, the rat was etherized, and blood was sampled from its heart to determine alcohol level in the blood by a alcoholic dehydrogenase method. For control, a physiological saline solution was used instead of the UDPGA.3Na solution.

With `O=C(O)[C@H]1O[C@H](OP(=O)(O)OP(=O)(O)OC[C@H]2O[C@@H](n3ccc(=O)[nH]c3=O)[C@H](O)[C@@H]2O)[C@H](O)[C@@H](O)[C@@H]1O` [UDPGA.3Na, trisodium uridine-5'-diphosphate glucuronic acid] the “% inhibition (neutral lipid in liver)” value [1] was 59.7%, the “Neutral Lipid in Liver” value [1] was 23.05 ± 10.72 mg/g and the “Behaviour: Deep Sleep” value ([2]; 3 hrs. after alcohol) was 2 heads. For the same compound, the “Behaviour: Lying Flat” value ([2]; 3 hrs. after alcohol) was 4 heads, the “Behaviour: Normal Walking” value ([2]; 3 hrs. after alcohol) was 4 heads and the “Righting Reflex +” value ([2]; 3 hrs. after alcohol) was 7 heads. For the same compound, the “Righting Reflex -” value ([2]; 3 hrs. after alcohol) was 3 heads, the “Behaviour: Deep Sleep” value ([2]; 6 hrs. after alcohol) was 2 heads and the “Behaviour: Lying Flat” value ([2]; 6 hrs. after alcohol) was 6 heads. For the same compound, the “Behaviour: Normal Walking” value ([2]; 6 hrs. after alcohol) was 2 heads, the “Righting Reflex +” value ([2]; 6 hrs. after alcohol) was 7 heads and the “Righting Reflex -” value ([2]; 6 hrs. after alcohol) was 3 heads. The “Behaviour: Deep Sleep” value ([2]; 9 hrs. after alcohol) was 1 heads, the “Behaviour: Lying Flat” value ([2]; 9 hrs. after alcohol) was 6 heads and the “Behaviour: Normal Walking” value ([2]; 9 hrs. after alcohol) was 3 heads. The “Righting Reflex +” value ([2]; 9 hrs. after alcohol) was 9 heads, the “Righting Reflex -” value ([2]; 9 hrs. after alcohol) was 1 heads and the “Behaviour: Deep Sleep” value ([2]; 12 hrs. after alcohol) was 0 heads. For the same compound, the “Behaviour: Lying Flat” value ([2]; 12 hrs. after alcohol) was 0 heads, the “Behaviour: Normal Walking” value ([2]; 12 hrs. after alcohol) was 10 heads and the “Righting Reflex +” value ([2]; 12 hrs. after alcohol) was 10 heads. The “Righting Reflex -” value ([2]; 12 hrs. after alcohol) was 0 heads, the “Behaviour: Deep Sleep” value ([2]; 18 hrs. after alcohol) was 0 heads and the “Behaviour: Lying Flat” value ([2]; 18 hrs. after alcohol) was 0 heads. For the same compound, the “Behaviour: Normal Walking” value ([2]; 18 hrs. after alcohol) was 10 heads, the “Righting Reflex +” value ([2]; 18 hrs. after alcohol) was 10 heads and the “Righting Reflex -” value ([2]; 18 hrs. after alcohol) was 0 heads. For the same compound, the “Behaviour: Deep Sleep” value ([3]; 3 hrs. after alcohol) was 2 heads, the “Behaviour: Lying Flat” value ([3]; 3 hrs. after alcohol) was 5 heads and the “Behaviour: Normal Walking” value ([3]; 3 hrs. after alcohol) was 3 heads. For the same compound, the “Righting Reflex +” value ([3]; 3 hrs. after alcohol) was 7 heads, the “Righting Reflex -” value ([3]; 3 hrs. after alcohol) was 3 heads and the “Behaviour: Deep Sleep” value ([3]; 6 hrs. after alcohol) was 2 heads. For the same compound, the “Behaviour: Lying Flat” value ([3]; 6 hrs. after alcohol) was 6 heads, the “Behaviour: Normal Walking” value ([3]; 6 hrs. after alcohol) was 2 heads and the “Righting Reflex +” value ([3]; 6 hrs. after alcohol) was 7 heads. The “Righting Reflex -” value ([3]; 6 hrs. after alcohol) was 3 heads, the “Behaviour: Deep Sleep” value ([3]; 9 hrs. after alcohol) was 1 heads and the “Behaviour: Lying Flat” value ([3]; 9 hrs. after alcohol) was 3 heads. The “Behaviour: Normal Walking” value ([3]; 9 hrs. after alcohol) was 6 heads, the “Righting Reflex +” value ([3]; 9 hrs. after alcohol) was 8 heads and the “Righting Reflex -” value ([3]; 9 hrs. after alcohol) was 2 heads. For the same compound, the “Behaviour: Deep Sleep” value ([3]; 12 hrs. after alcohol) was 0 heads, the “Behaviour: Lying Flat” value ([3]; 12 hrs. after alcohol) was 2 heads and the “Behaviour: Normal Walking” value ([3]; 12 hrs. after alcohol) was 8 heads. The “Righting Reflex +” value ([3]; 12 hrs. after alcohol) was 10 heads, the “Righting Reflex -” value ([3]; 12 hrs. after alcohol) was 0 heads and the “Behaviour: Deep Sleep” value ([3]; 18 hrs. after alcohol) was 0 heads. For the same compound, the “Behaviour: Lying Flat” value ([3]; 18 hrs. after alcohol) was 0 heads, the “Behaviour: Normal Walking” value ([3]; 18 hrs. after alcohol) was 10 heads and the “Righting Reflex +” value ([3]; 18 hrs. after alcohol) was 10 heads. The “Righting Reflex -” value ([3]; 18 hrs. after alcohol) was 0 heads, the “Ethanol level in Blood, Average” value ([4]; 160 mg/kg oral in physiological saline, blood 4 h 30 min after ethanol, Confidence Limits: 98%) was 1.59 ± 0.93 mg/mL and the “Ethanol level in Blood (individual test animals)” value ([4]; 160 mg/kg oral in physiological saline, blood 4 h 30 min after ethanol, test animals 1-12 in block order) was 2.21 mg/mL and 1.65 mg/mL and 1.82 mg/mL and 1.41 mg/mL and 1.19 mg/mL and 2.15 mg/mL and 0.85 mg/mL and 0.37 mg/mL and 0.63 mg/mL and 1.79 mg/mL and 2.19 mg/mL and 2.82 mg/mL. The “Behavior (individual test animals)” value ([4]; 160 mg/kg oral in physiological saline, test animals 1-12 in block order) was “lying flat; also recorded: normal walking; also recorded: deep sleep” and the “alcohol level in blood in comparison with the control” value ([4]; 160 mg/kg oral, blood 4 h 30 min after ethanol) was “significantly lowered”.
